From patent US20230080054A1 (ILDONG PHARMACEUTICAL CO., LTD., priority 2021, published 2023)

How the values were obtained:
[1] = test system: platelet-rich plasma (PRP); experiment: Recalcification time of rat platelet-rich plasma; details: 30 μM, vs 2% DMSO control
Experimental: Example 5: Recalcification Time
1. Materials and Instruments
Isoflurane (Hana Pharm, cat. #9008), Isotonic Sodium Chloride Injection (Daihan Pharm, cat. #331), Citrate-dextrose solution (Sigma-Aldrich, cat. #C3821), Calcium chloride solution (Sigma-Aldrich, cat. #21115), 22G Syringe 10 mL (Koreavaccine), Dimethyl sulfoxide (Sigma-Aldrich, cat. #D5879), Apixaban (AK scientific, cat. #X1060), 96 Well Cell Culture Plates (SPL Life Sciences, cat. #30096), Synergy H4 Hybrid Microplate Reader (BioTek), Combi R515 Multi-purpose Centrifuge (Hanil Scientific), BS-06 Shaking & Heating Baths (JEIO TECH), and PST-60HL-4 Plate Shaker-Thermostat (Bio-San)
Seven-week-old male SD Rat (ORIENT BIO.) were maintained under controlled conditions of temperature (22±2° C.) and 12-h light/12-h dark cycle. Rats were housed in the pathogen-free facility of the Laboratory Animal Research Center in Ildong Pharmaceutical Co. Ltd. All procedures on animals were conducted in accordance with the relevant national regulatory guidelines and individual experiments approved by the Ildong Pharmaceutical Co. Ltd., Institutional Animal Care and Use Committee (IACUC) (approval No.: A2106-3, 2108-4).
The ability of test compounds to interfere with plasma coagulation, in the presence of platelets, was analyzing by measuring the recalcification time of rat plasma. The blood of animals was collected into 15 mL tubes containing Citrate-dextrose solution (9:1 v/v) before performing the assays. For recalcification time, platelet-rich plasma (PRP) samples were obtained by centrifugation at 360×g for 10 minutes. And the PRP were preincubated for 5 minutes (37° C.). In a 96 well microplate, test compounds (2 μL) were treated in 98 μL of platelet rich plasma. After mixing with a pipette, it was incubated at 37° C. for 15 minutes. The reaction was started by addition of 200 μL of pre-warmed CaCl2) (16 mM). Immediately, put the microplate in a microplate reader and the signals were measured by the following steps.
(1) 405 nm wavelength absorbance signals were recorded in every 10 seconds at 37° C.
(2) Basal absorbance signals were recorded for 0 second.
The signal variance of each of the test compounds was obtained by the following step.
(1) Background signals (t=O) were subtracted from recording values, and the resulting values were converted to change values. The values at 0 second were set to be zero.
The retardation time of test compound were calculated by the following formula:
Retardation time (sec)=[log EC50 (test sample)−log EC50 (DMSO control)]
As described above, a DMSO control group is a group to which 2% DMSO was treated.
The assay result is shown in Table 5, where compounds (30 μM) having less than 20 seconds of retardation time are marked by ‘C’; the compounds (30 μM) having retardation time of 20 seconds or more to less than 50 seconds are marked by ‘B’; and the compounds (30 μM) having retardation time of 50 seconds or more are marked by ‘A’.

human ANO6 [2] = target: T1, human ANO6 (Homo sapiens, UniProt Q4KMQ2); experiment: LACT C2 assay (phosphatidylserine scramblase function assay); format: cell-based; details: FRT cells expressing human ANO6, 10 μM ionomycin; for inhibition at 0.1 µM: test compound 100 nM, read-out: Inhibition Level 100 nM; for inhibition at 1 µM: test compound 1 μM, read-out: Inhibition Level 1 μM
T1 construct: expressed in transfected cells
T1 sequence (Q4KMQ2 1-931 isoform Q4KMQ2-2): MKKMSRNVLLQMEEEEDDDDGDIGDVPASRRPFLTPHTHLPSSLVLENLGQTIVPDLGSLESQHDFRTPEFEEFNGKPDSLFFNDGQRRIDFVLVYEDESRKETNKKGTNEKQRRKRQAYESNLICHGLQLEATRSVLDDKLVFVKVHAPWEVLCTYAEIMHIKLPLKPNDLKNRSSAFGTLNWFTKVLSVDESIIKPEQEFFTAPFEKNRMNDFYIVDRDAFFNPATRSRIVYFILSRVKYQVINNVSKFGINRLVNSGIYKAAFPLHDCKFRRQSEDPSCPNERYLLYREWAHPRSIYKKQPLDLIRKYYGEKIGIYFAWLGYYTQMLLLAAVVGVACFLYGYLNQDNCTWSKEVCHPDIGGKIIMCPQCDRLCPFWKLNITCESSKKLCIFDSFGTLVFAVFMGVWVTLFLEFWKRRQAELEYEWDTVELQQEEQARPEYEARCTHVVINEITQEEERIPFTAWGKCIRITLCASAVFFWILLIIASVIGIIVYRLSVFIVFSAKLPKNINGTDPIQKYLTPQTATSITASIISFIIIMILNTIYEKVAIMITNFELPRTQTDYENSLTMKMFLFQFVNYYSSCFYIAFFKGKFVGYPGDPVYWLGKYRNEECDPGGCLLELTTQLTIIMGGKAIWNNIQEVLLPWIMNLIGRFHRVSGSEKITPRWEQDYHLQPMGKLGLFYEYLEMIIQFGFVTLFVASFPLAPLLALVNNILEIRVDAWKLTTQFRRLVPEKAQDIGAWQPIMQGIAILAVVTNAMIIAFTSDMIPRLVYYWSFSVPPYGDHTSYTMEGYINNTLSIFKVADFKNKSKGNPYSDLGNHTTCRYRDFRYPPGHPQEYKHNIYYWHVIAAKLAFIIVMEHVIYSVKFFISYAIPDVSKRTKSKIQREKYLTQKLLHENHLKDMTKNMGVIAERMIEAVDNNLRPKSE
In short: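 Inhibition was normalised between ionomycin-only (0%) and untreated (100%) wells, with triplicates averaged. Readout was background-corrected Lact-C2-GFP (500 nM) fluorescence from imaged cells. The cells were FRT cells stably expressing human ANO6, given compound at 1% DMSO for 10 min before a 10 min 10 μM ionomycin challenge.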

human ANO6 [3] = target: T1, human ANO6; experiment: YFP quenching assay (ANO6 ion channel activity); format: cell-based; details: 10 μM ionomycin; for inhibition at 1 µM: test compound 1 μM, read-out: Inhibition Level 1 μM; for inhibition at 30 µM: test compound 30 μM, read-out: Inhibition Level 30 μM
In short: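 FRT cells stably expressing human ANO6 and YFP-H148Q/I152L/F46L, preincubated 10 min at 40° C with compounds (1% DMSO) in PBS. Quench read every 0.4 s after injecting 140 mM SCN- with 10 μM ionomycin; % inhibition from the 3.6–7.6 s fluorescence difference, normalised to no-ionomycin (100%) and ionomycin-only (0%) wells, duplicate or triplicate.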

inhibition at 0.1 µM (human ANO6 [2]) [%]	inhibition at 1 µM (human ANO6 [2]) [%]	inhibition at 1 µM (human ANO6 [3]) [%]	inhibition at 30 µM (human ANO6 [3]) [%]	Structure (SMILES)	Inhibition Level (retardation time, recalcification time) [1]
< 30	< 30	≥ 60	≥ 60	O=C(NCCCc1ccccc1)c1cccc(Nc2ccc(-c3ccc(F)cc3)nn2)c1 [Compound A6]	
30 to 60		≥ 60	≥ 60	CCCOc1ccc(CNC(=O)c2cccc(Nc3ccc(-c4ccccc4)nn3)c2)cc1 [Compound A47]	
< 30	< 30	≥ 60	≥ 60	CC(C)CNC(=O)c1cccc(Nc2ccc(-c3ccccc3)nn2)c1 [Compound A66]	
< 30	< 30	≥ 60	≥ 60	O=C(NCCc1ccccc1)c1cccc(Nc2ccc(-c3ccc(F)cc3)nn2)c1 [Compound A4]	
< 30	30 to 60	30 to 60	≥ 60	O=C(NCc1ccc(Cl)cc1)c1cccc(Nc2ccc(-c3ccccc3)nn2)c1 [Compound A49]	
< 30	< 30	≥ 60	≥ 60	COc1ccc(CNC(=O)c2cccc(Nc3ccc(-c4ccccc4)nn3)c2)cc1 [Compound A77]	
< 30	≥ 60	≥ 60		O=C(Nc1ccc2c(c1)OCO2)c1cccc(Nc2ncc(-c3cccc(F)c3)cn2)c1 [Compound A85]	
< 30	30 to 60	30 to 60	≥ 60	O=C(NCc1ccccc1)c1cccc(Nc2ccc(-c3ccccc3)nn2)c1 [Compound A75]	

Further lines, the compound ahead of its results:

Structure (SMILES)	inhibition at 0.1 µM (human ANO6 [2]) [%]	inhibition at 1 µM (human ANO6 [2]) [%]	inhibition at 1 µM (human ANO6 [3]) [%]	inhibition at 30 µM (human ANO6 [3]) [%]	Inhibition Level (retardation time, recalcification time) [1]
O=C(Nc1cccc(F)c1)c1cccc(Nc2ccc(-c3cnccn3)cc2)c1 [Compound 172, N-(3-fluorophenyl)-3-((4-(pyrazin-2-yl)phenyl)amino)benzamide]	≥ 60				C (compounds (30 μM) having less than 20 seconds of retardation time)
O=C(Nc1cccc(F)c1)c1cccc(Nc2ccc(-c3ccccc3)cn2)c1 [Compound 128, N-(3-fluorophenyl)-3-((5-phenylpyridin-2-yl)amino)benzamide]	≥ 60	≥ 60			A (the compounds (30 μM) having retardation time of 50 seconds or more)
O=C(N[C@@H]1C[C@H]1c1ccccc1)c1cccc(Nc2ccc(-c3cccnc3)cc2)c1 [Compound 161, N-((1R,2S)-2-phenylcyclopropyl)-3-((4-(pyridin-3-yl)phenyl)amino)benzamide]	≥ 60	≥ 60			A (the compounds (30 μM) having retardation time of 50 seconds or more)
O=C(Nc1cccc(F)c1)c1cccc(Nc2ccc(-c3cccnc3)cc2)c1 [Compound 160, N-(3-fluorophenyl)-3-((4-(pyridin-3-yl)phenyl)amino)benzamide]	≥ 60	≥ 60			B (the compounds (30 μM) having retardation time of 20 seconds or more to less than 50 seconds)
O=C(N[C@@H]1C[C@H]1c1ccccc1)c1cccc(Nc2ccc(-c3cnccn3)cc2)c1 [Compound 173, N-((1R,2S)-2-phenylcyclopropyl)-3-((4-(pyrazin-2-yl)phenyl)amino)benzamide]	< 30				B (the compounds (30 μM) having retardation time of 20 seconds or more to less than 50 seconds)
O=C(Nc1cccc(F)c1)c1cccc(Nc2ncc(-c3ccoc3)cn2)c1 [Compound 176, N-(3-fluorophenyl)-3-((5-(furan-3-yl)pyrimidin-2-yl)amino)benzamide]					C (compounds (30 μM) having less than 20 seconds of retardation time)
Cc1ccc(CNC(=O)c2cccc(Nc3ncc(-c4ccc(C)o4)cn3)c2)o1 [Compound 92, N-[(5-methylfuran-2-yl)methyl]-3-{[5-(5-methylfuran-2-yl)pyrimidin-2-yl]amino}benzamide]		< 30	< 30		
Cc1ccc(CNC(=O)c2cccc(Nc3ccc(-c4cccc(F)c4)cc3)c2)o1 [Compound 57, 3-({3′-fluoro-[1,1′-biphenyl]-4-yl}amino)-N-[(5-methylfuran-2-yl)methyl]benzamide]	< 30	≥ 60	≥ 60		
Cc1ccc(CNC(=O)c2cccc(Nc3ccc(-c4cccc(F)c4)cn3)c2)o1 [Compound 125, 3-{[5-(3-fluorophenyl)pyridin-2-yl]amino}-N-[(5-methylfuran-2-yl)methyl]benzamide]	< 30	≥ 60	≥ 60		
O=C(N[C@@H]1C[C@H]1c1ccccc1)c1cccc(Nc2ccc(-c3ccccc3)cn2)c1 [Compound 115, N-[(1R,2S)-2-phenylcyclopropyl]-3-[(5-phenylpyridin-2-yl)amino]benzamide]	≥ 60	≥ 60	≥ 60		
Cc1ccc(CNC(=O)c2cccc(Nc3cnc(-c4ccccc4)cn3)c2)o1 [Compound 1, N-[(5-methylfuran-2-yl)methyl]-3-[(5-phenylpyrazin-2-yl)amino]benzamide]		≥ 60	30 to 60	≥ 60	
O=C(NCc1cccs1)c1cccc(Nc2ccc(-c3ccccc3)nn2)c1 [Compound 39, 3-[(6-phenylpyridazin-3-yl)amino]-N-[(thiophen-2-yl)methyl]benzamide]		< 30	≥ 60	≥ 60	
